Numbered stars: 1 amine (or outer) side, 2 acyl side, 3 side chain; on linkers, the order of the positions; unused ones are H or OH. Square brackets hold non-standard residues; d marks the D form. Side chains are listed from the residue outwards. Peptide text beside a SMILES is read from it. * marks the point of attachment. Ethylenediamine = C(CN[*:2])N[*:1]; cisHyp = O=C(O)[C@@H]1C[C@H](O)CN1; Hyp = O=C(O)[C@@H]1C[C@@H](O)CN1; NHCH2CH2NMe2 = CN(C)CCN*; CO = O=C([*:1])[*:2]; Bn = c1ccc(C*)cc1

One experiment concerns the target hSST-4 (Homo sapiens, UniProt P31391). In words: competition binding assay, membranes of CHO cells expressing hSST-4, [125I-Tyr3]-octreotide. As to conditions: competition with [125I-Tyr3]-octreotide; read-out: IC50 (nM) hSSTR-4.
In another experiment the target is hSST-5 (Homo sapiens, UniProt P35346). Briefly: competition binding assay, membranes of CHO cells expressing hSST-5, [125I-Tyr3]-octreotide. As to conditions: competition with [125I-Tyr3]-octreotide; read-out: IC50 (nM) hSSTR-5. How it is done:
(§1) The binding assays may be carried out as disclosed hereunder using membranes prepared from hSST-1, hSST-2, hSST-3, hSST-4 or hSST-5 selective cell lines, e.g. CHO cells stably expressing hSST-1, hSST-2, hSST-3, hSST-4 or hSST-5.
(§2) Brain or pituitary tissue is used in which hSST are visualized with e.g. in situ hybridization and/or receptor autoradiography. Membranes are prepared according to known methods, e.g. as disclosed by J C. Reubi et al. in J. Clin. Endocrinol. Metab. 1987, 65, 1127-1137. Membranes prepared from hSST selective cell lines, e.g. CHO cells stably expressing hSST-1 or hSST-2 or hSST-3 or hSST-4 or hSST-5 are incubated in triplicate in a total volume of 300 μl at 22° C. for 30 min with increasing concentrations of [^125 I-Tyr^3 ]-octreotide in 10 mmol/l Hepes buffer (pH 7.6) containing 0.5% BSA. The incubation is terminated by rapid filtration through Whatman GF/B glass fiber filters, which are then washed four times each with 5 ml ice cold 10 mmol/l Tris/150 mmol/l NaCl. The filters are counted in a LKB counter at 78% counting efficiency. Specific binding is total binding minus non-specific binding in the presence of 1 μmol/l somatostatin-14. The experiments are carried out in triplicate. The affinity constant (KD) and number of binding sites are calculated from Scatchard plots of the data.
(§3) The COMPOUNDS OF THE INVENTION, e.g. as indicated above, respectively, have in the above binding assays towards hsST-1, hSST-2, hSST-3, hSST-4 and/or hSST-5 an IC50 in the nMolar range, preferably an IC50 of from 0.1 to 10 nM (IC50 =concentration for half-maximal inhibition in a competition binding assay using [^125 I-Tyr^3 ]-octreotide the same radioligand as indicated above).

The target of another experiment is hSST-1 (Homo sapiens, UniProt P30872). In words: competition binding assay, membranes of CHO cells expressing hSST-1, [125I-Tyr3]-octreotide. To be noted: competition with [125I-Tyr3]-octreotide; read-out: IC50 (nM) hSSTR-1. On the procedure: as §1, §2, §3
The target of the next experiment is hSST-3 (Homo sapiens, UniProt P32745). Briefly: competition binding assay, membranes of CHO cells expressing hSST-3, [125I-Tyr3]-octreotide. As to conditions: competition with [125I-Tyr3]-octreotide; read-out: IC50 (nM) hSSTR-3. How it is done: as §1, §2, §3
In the next experiment the target is hSST-2 (Homo sapiens, UniProt P30874). Briefly: competition binding assay, membranes of CHO cells expressing hSST-2, [125I-Tyr3]-octreotide. To be noted: competition with [125I-Tyr3]-octreotide; read-out: IC50 (nM) hSSTR-2. On the procedure:
as §1, §2, §3

In experiment [1] the test system is GH release from cultured pituitary cells. Briefly: inhibition of GH release in vitro from cultured pituitary cells. As to conditions: rat pituitary cells, 3×10^-10 M growth hormone releasing factor, two to four hours. The format is cell-based. How it is done:
Furthermore, the COMPOUNDS OF THE INVENTION show GH-release inhibiting activity as indicated by the inhibition of GH release in vitro from cultured pituitary cells. Anterior pituitary glands from adult male rats are cut into small pieces and dispersed using 0.1% trypsin in 20 mM HEPES buffer. The dispersed cells are cultured for four days in MEM (Gibco) supplemented with 5% fetal calf serum, 5% horse serum, 1 mM NaHCO3, 2.5 nM dexamethasone, 2.5 mg/ml insulin and 20 U/ml Pen/Strep. On the day of the experiment the attached cells are washed two times with Krebs-Ringer medium buffered with 20 mM HEPES and supplemented with 5 mM glucose and 0.2% BSA. Subsequently the cells are incubated for two to four hours with the test compound in the presence of 3×10^-10 M growth hormone releasing factor. The amount of growth hormone released into the medium is measured by RIA.

Experiment [2] has as its system AR42J rat pancreatic tumor cell line. Briefly: AR42J proliferation test. The format is cell-based. As to conditions: exposure 2 to 5 days; ± SE; read-out: IC50, inhibition of proliferation of AR42J tumor cells. On the procedure:
The AR42J rat pancreatic tumor cell line is derived from an azaserine-induced exocrine pancreatic tumor (Jessop and Hay, 1980). The absence of mycoplasma is regularly checked using bisbenzimide staining and the GenProbe hybridization assay (San Diego, Calif.). Cultures are propagated in DMEM supplemented with 10% fetal calf serum (FCS) at 5% CO2. Cells are grown in the absence of antibiotics or antifungal agents. Subconfluent AR42J cells are trypsinized, diluted in DMEM +2.5% FCS and seeded in uncoated 96-well plates. After a 48-hr incubation period (Day 0), the number of cells in a separate control plate is determined both by counting cells in a Coulter counter and by the SRB calorimetric assay. The cells are then exposed to the compound to be tested for 2 to 5 days at various concentrations and then counted.

hSST-1, sequence (P30872 whole entry): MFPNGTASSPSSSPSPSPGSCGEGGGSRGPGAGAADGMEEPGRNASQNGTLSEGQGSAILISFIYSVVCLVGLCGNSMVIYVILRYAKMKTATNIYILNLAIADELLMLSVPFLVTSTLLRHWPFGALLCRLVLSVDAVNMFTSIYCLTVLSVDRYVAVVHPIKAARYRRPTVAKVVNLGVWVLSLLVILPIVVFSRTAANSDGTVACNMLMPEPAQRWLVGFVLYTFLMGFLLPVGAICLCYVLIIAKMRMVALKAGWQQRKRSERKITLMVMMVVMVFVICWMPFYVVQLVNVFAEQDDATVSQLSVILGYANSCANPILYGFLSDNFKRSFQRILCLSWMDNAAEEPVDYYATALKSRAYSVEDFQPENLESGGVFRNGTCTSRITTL
hSST-5, sequence (P35346 whole entry): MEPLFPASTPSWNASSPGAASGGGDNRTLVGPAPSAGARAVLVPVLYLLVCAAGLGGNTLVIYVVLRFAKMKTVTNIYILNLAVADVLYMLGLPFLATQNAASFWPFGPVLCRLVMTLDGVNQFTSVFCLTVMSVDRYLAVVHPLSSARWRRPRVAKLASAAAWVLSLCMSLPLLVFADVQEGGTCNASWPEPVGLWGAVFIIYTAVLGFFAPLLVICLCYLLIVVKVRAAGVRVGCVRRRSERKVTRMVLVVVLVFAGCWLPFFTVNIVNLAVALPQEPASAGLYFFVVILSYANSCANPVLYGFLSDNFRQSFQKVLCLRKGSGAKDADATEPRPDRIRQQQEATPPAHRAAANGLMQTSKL
hSST-3, sequence (P32745 whole entry): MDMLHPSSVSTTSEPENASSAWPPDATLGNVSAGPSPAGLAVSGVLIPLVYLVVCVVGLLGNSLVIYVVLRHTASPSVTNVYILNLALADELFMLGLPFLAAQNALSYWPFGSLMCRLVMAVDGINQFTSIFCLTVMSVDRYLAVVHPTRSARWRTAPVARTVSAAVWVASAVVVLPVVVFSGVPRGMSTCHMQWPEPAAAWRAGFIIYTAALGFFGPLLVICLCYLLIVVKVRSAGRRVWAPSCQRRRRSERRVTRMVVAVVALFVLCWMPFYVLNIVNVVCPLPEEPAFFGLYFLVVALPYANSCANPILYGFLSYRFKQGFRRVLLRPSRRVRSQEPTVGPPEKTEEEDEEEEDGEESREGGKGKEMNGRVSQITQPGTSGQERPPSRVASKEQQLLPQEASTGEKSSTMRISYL
hSST-2, sequence (P30874 whole entry): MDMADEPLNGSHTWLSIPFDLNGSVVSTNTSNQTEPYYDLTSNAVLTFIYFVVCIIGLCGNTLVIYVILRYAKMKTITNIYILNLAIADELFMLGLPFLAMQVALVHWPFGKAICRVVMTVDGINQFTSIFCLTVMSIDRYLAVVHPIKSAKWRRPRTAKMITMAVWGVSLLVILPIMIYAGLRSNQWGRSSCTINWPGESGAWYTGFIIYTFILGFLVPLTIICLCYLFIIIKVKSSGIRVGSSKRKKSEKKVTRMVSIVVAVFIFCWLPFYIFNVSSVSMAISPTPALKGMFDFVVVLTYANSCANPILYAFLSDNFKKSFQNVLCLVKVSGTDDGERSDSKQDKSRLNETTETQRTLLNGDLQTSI
hSST-4, sequence (P31391 whole entry): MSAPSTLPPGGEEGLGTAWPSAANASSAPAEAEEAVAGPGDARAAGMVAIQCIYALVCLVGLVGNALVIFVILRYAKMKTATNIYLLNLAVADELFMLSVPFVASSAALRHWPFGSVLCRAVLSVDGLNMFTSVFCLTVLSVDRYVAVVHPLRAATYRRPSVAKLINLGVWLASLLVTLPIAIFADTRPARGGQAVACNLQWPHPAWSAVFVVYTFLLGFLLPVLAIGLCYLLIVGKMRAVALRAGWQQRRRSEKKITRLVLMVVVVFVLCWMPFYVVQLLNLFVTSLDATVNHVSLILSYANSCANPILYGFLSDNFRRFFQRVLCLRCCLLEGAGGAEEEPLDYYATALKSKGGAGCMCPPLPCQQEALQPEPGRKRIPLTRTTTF

On to `NCCCC[C@@H]1NC(=O)[C@@H](Cc2c[nH]c3ccccc23)NC(=O)[C@H](Cc2ccccc2)NC(=O)[C@@H]2C[C@@H](O)CN2C(=O)[C@H](Cc2ccccc2)NC(=O)[C@H](Cc2ccc(OCc3ccccc3)cc2)NC1=O` [Example 1, Cyclo [HyPro-Phe-DTrp-Lys-Tyr(Bzl)-Phe]] (cyclo(F[Hyp]F[dW]KY(Bn))), for which the IC50 at hSST-4 is 320 nM; at hSST-5, 0.35 nM; on hSST-1 it was 63 nM; on hSST-3, 1.9 nM; at hSST-2 it was 0.94 nM.

Regarding `NCCCC[C@@H]1NC(=O)[C@@H](Cc2c[nH]c3ccccc23)NC(=O)[C@H](Cc2ccccc2)NC(=O)[C@@H]2C[C@@H](OC(=O)NCCN)CN2C(=O)[C@H](Cc2ccccc2)NC(=O)[C@H](Cc2ccc(OCc3ccccc3)cc2)NC1=O` [Example 2, Cyclo[{4-(NH2 --C2 H4 --NH--CO--O--)Pro}-Phe-DTrp-Lys-Tyr(Bzl)-Phe]] (cyclo(F[Hyp]([CO-Ethylenediamine])F[dW]KY(Bn))), the IC50 on hSST-4 amounted to 490 nM; on hSST-5, 0.46 nM; at hSST-1, 4.6 nM; in experiment [1] it was 0.4 nM; in experiment [2], 0.7 ± 0.3 nM; on hSST-3, 0.93 nM. Also, the IC50 at hSST-2 was 2.3 nM.

Take `NCCCC[C@@H]1NC(=O)[C@@H](Cc2c[nH]c3ccccc23)NC(=O)[C@H](Cc2ccccc2)NC(=O)[C@@H]2C[C@@H](OC(=O)NCCN)CN2C(=O)[C@H](Cc2ccccc2)NC(=O)[C@H](COCc2ccccc2)NC1=O` [Example 31] (cyclo(F[Hyp]([CO-Ethylenediamine])F[dW]KS(Bn))): the IC50 on hSST-5 turned out to be 2.9 nM; on hSST-1, 0.5 nM; at hSST-3, 3.9 nM; at hSST-2, 0.8 nM.

Take `NCCCC[C@@H]1NC(=O)[C@@H](Cc2c[nH]c3ccccc23)NC(=O)[C@H](Cc2ccccc2)NC(=O)[C@@H]2C[C@H](OC(=O)NCCN)CN2C(=O)[C@H](Cc2ccccc2)NC(=O)[C@H](COCc2ccccc2)NC1=O` [Example 32] (cyclo(F[cisHyp]([CO-Ethylenediamine])F[dW]KS(Bn))): the IC50 at hSST-5 is 2 nM; on hSST-1, 3.8 nM; at hSST-3 it was 57 nM; on hSST-2 it was 0.13 nM.

Take `CN(C)CCNC(=O)O[C@@H]1C[C@H]2C(=O)N[C@@H](Cc3ccccc3)C(=O)N[C@H](Cc3c[nH]c4ccccc34)C(=O)N[C@@H](CCCCN)C(=O)N[C@@H](COCc3ccccc3)C(=O)N[C@@H](Cc3ccccc3)C(=O)N2C1` [Example 36] (cyclo(F[Hyp]([CO-NHCH2CH2NMe2])F[dW]KS(Bn))): the IC50 was 4.5 nM at hSST-5, 0.6 nM on hSST-1, 2.4 nM on hSST-3 and 1.3 nM at hSST-2.

For the origin of these results see patent publication US6225284A, “Somatostatin peptides” (Novartis AG, priority 1995, dated 2001).
